According to the supplement of paper PMC8882468:
± gives the standard deviation of the averaged measurements.

Tests used:
Assay in all cases: CTG-3D luminescence at 96 h relative to day-0 seeding control (ratio to day 0); higher = more growth / less cytotoxicity; PDxO 3D drug screen, 96 h, CTG-3D normalised to day-0 seeding control.
[1] = test system: HCI-002 (organoid from a triple-negative breast cancer xenograft)
[2] = test system: HCI-008 (organoid from a HER2-enriched breast cancer xenograft)
[3] = test system: HCI-017.E2 (organoid from an ER-positive breast cancer xenograft)
[4] = test system: HCI-023 (organoid from a triple-negative breast cancer xenograft)
[5] = test system: HCI-024 (organoid from a breast cancer xenograft)

CC[C@H](NC(=O)[C@H](C)NC)C(=O)N1C[C@@H](O)C[C@H]1Cc1c(-c2[nH]c3cc(F)ccc3c2C[C@@H]2C[C@H](O)CN2C(=O)[C@H](CC)NC(=O)[C@H](C)NC)[nH]c2cc(F)ccc12 [birinapant]
CTG-3D luminescence at 96 h
Details | 12.5 pM | 0.00025 µM | 0.005 µM | 0.1 µM | 1 µM | 10 µM | 100 µM | 625 fM
[1], days in culture: 62 | 3.08 | 2.09 | 2.65 | 1.51 | 1.03 | 0.891 | 0.234 | 2.96
[1], days in culture: 82 | 3 | 2.82 | 1.96 | 1.59 | 0.689 | 0.62 | 0.148 | 3.06
[1], days in culture: 91 | 4.14 | 3.62 | 3.4 | 2.64 | 1.62 | 1.38 | 0.408 | 4.22
[1], days in culture: 191 | 2.67 | 2.28 | 2.58 | 1.73 | 1.31 | 0.959 | 0.188 | 2.59
[1], days in culture: 209 | 2.21 | 2.16 | 1.88 | 0.886 | 0.527 | 0.44 | 0.127 | 2.18
[1], days in culture: 227 | 6.23 | 5.92 | 5.21 | 2.45 | 1.39 | 1.41 | -0.1 | 6.13
[2], days in culture: 228 | 1.3 ± 0.2 | 1.73 ± 0.48 | 0.611 ± 0.22 | 0.11 ± 0.23 | 0.147 ± 0.19 | 0.206 ± 0.13 | 0.162 ± 0.073 | 1.43 ± 0.37
[2], days in culture: 244 | 1.27 | 1.82 | 1.05 | 0.549 | 0.521 | 0.713 | 0.51 | 2.04
[3], days in culture: 85 | 3.2 | 2.88 | 2.45 | 2.38 | 2.5 | 1.82 | 1.64 | 2.6
[4], days in culture: 111 | 1.31 | 0.929 | 0.368 | 0.0512 | 0.0433 | 0.0326 | 0.0111 | 1.35
[4], days in culture: 128 | 1.21 ± 0.27 | 1.13 ± 0.3 | 0.23 ± 0.029 | 0.0897 ± 0.023 | 0.044 ± 0.011 | 0.0472 ± 0.011 | 0.006598 ± 1.9e-05 | 1.75 ± 0.32
[5], days in culture: 105 | 1.4 | 1.17 | 0.375 | 0.175 | 0.139 | 0.177 | 0.0272 | 1.84
[5], days in culture: 122 | 1.7 | 1.71 | 0.726 | 0.194 | 0.134 | 0.237 | 0.0303 | 2.58
[5], days in culture: 163 | 1.8 | 1.36 | 0.525 | 0.315 | 0.255 | 0.23 | 0.0734 | 2.09

[3]
Details | CTG-3D luminescence at 96 h
12.5 pM | 1.76 ± 0.14
0.00025 µM | 2.26 ± 0.1
0.005 µM | 2.2 ± 0.28
0.1 µM | 2.01 ± 0.16
1 µM | 2.21 ± 0.09
10 µM | 2.12 ± 0.028
100 µM | 1.51 ± 0.092
625 fM | 2.35 ± 0.26

NC1(C(=O)N[C@@H](CCO)c2ccc(Cl)cc2)CCN(c2nc[nH]c3nccc2-3)CC1 [capivasertib]
CTG-3D luminescence at 96 h
Details | 12.5 pM | 0.00025 µM | 0.005 µM | 0.1 µM | 1 µM | 10 µM | 100 µM | 625 fM
[1], days in culture: 62 | 2.82 | 2.61 | 2.83 | 2.56 | 2.34 | 2.26 | 0.503 | 2.99
[1], days in culture: 82 | 2.73 | 2.76 | 1.95 | 2.52 | 1.92 | 1.51 | 0.418 | 2.8
[1], days in culture: 91 | 4.24 | 3.84 | 3.7 | 3.73 | 2.94 | 3.16 | 1.6 | 4
[1], days in culture: 191 | 2.54 | 2.72 | 1.88 | 2.57 | 2.45 | 1.75 | 0.435 | 2.31
[1], days in culture: 209 | 2.44 | 2.32 | 2.31 | 1.92 | 1.96 | 1.45 | 0.402 | 2.39
[1], days in culture: 227 | 6.02 | 6.01 | 6.13 | 6.73 | 5.16 | 4.63 | 0.534 | 6.21
[2], days in culture: 228 | 1.6 ± 0.04 | 2.11 ± 0.38 | 1.54 ± 0.2 | 0.955 ± 0.35 | 0.441 ± 0.091 | 0.222 ± 0.31 | 0.155 ± 0.24 | 1.76 ± 0.22
[2], days in culture: 244 | 1.6 | 1.98 | 1.87 | 1.34 | 0.546 | 0.415 | 0.392 | 2.08
[3], days in culture: 85 | 2.33 | 2.6 | 2.77 | 2.3 | 1.44 | 0.794 | 0.118 | 2.69
[4], days in culture: 111 | 1.51 | 1.39 | 0.992 | 0.931 | 0.434 | 0.366 | 0.16 | 1.39
[4], days in culture: 128 | 1.4 ± 0.31 | 1.63 ± 0.23 | 1.43 ± 0.17 | 1.22 ± 0.094 | 0.571 ± 0.062 | 0.658 ± 0.14 | 0.277 ± 0.0088 | 1.75 ± 0.15
[5], days in culture: 105 | 1.73 | 1.84 | 1.39 | 1.47 | 0.926 | 0.839 | 0.401 | 2.06
[5], days in culture: 122 | 2.22 | 2.39 | 1.78 | 1.68 | 1.09 | 1.35 | 0.518 | 2.23
[5], days in culture: 163 | 2.16 | 1.74 | 1.93 | 2.41 | 1.56 | 1.32 | 0.629 | 2.73

[3]
Details | CTG-3D luminescence at 96 h
12.5 pM | 1.91 ± 0.24
0.00025 µM | 2.1835 ± 0.00074
0.005 µM | 2.12 ± 0.47
0.1 µM | 1.61 ± 0.075
1 µM | 1.02 ± 0.1
10 µM | 0.644 ± 0.04
100 µM | 0.2237 ± 0.00086
625 fM | 2.12 ± 0.11

O=C(O)C1(C(=O)O)CCC1.[NH2-].[NH2-].[Pt+2] [carboplatin]
CTG-3D luminescence at 96 h
Details | 12.5 pM | 0.00025 µM | 0.005 µM | 0.1 µM | 1 µM | 10 µM | 100 µM | 625 fM
[1], days in culture: 62 | 3.04 | 2.34 | 2.63 | 2.61 | 2.45 | 2.29 | 0.71 | 2.9
[1], days in culture: 82 | 2.75 | 3.03 | 1.99 | 2.54 | 2.26 | 1.82 | 0.726 | 2.68
[1], days in culture: 91 | 4.49 | 3.72 | 3.53 | 3.87 | 3.9 | 3.69 | 0.992 | 4.08
[1], days in culture: 191 | 2.54 | 2.62 | 2.4 | 2.78 | 2.89 | 1.86 | 0.967 | 2.4
[1], days in culture: 209 | 2.4 | 2.34 | 2.11 | 2.07 | 2.18 | 1.69 | 0.74 | 2.38
[1], days in culture: 227 | 5.92 | 5.72 | 5.38 | 6.29 | 5.74 | 5.68 | 1.18 | 6.2
[2], days in culture: 228 | 1.58 ± 0.47 | 2.29 ± 0.44 | 1.79 ± 0.38 | 2.05 ± 0.096 | 1.57 ± 0.32 | 1.31 ± 0.16 | 0.0629 ± 0.15 | 1.63 ± 0.52
[2], days in culture: 244 | 1.2 | 1.8 | 1.7 | 2.09 | 1.78 | 1.89 | 0.158 | 1.98
[3], days in culture: 85 | 2.99 | 2.47 | 2.94 | 2.35 | 2.71 | 2.18 | 2.37 | 2.62
[4], days in culture: 111 | 1.4 | 1.31 | 1.12 | 1.33 | 0.977 | 1.03 | 0.106 | 1.16
[4], days in culture: 128 | 1.28 ± 0.071 | 1.47 ± 0.21 | 1.23 ± 0.099 | 1.6 ± 0.024 | 1.16 ± 0.075 | 1.35 ± 0.19 | 0.0724 ± 0.044 | 1.57 ± 0.52
[5], days in culture: 105 | 1.38 | 1.54 | 1.37 | 1.52 | 1.36 | 1.64 | 0.14 | 1.71
[5], days in culture: 122 | 1.94 | 1.95 | 1.97 | 1.65 | 1.8 | 2.27 | 0.189 | 2.78
[5], days in culture: 163 | 2.01 | 2.27 | 2.06 | 2.67 | 2.1 | 2.03 | 0.608 | 2.43

[3]
Details | CTG-3D luminescence at 96 h
12.5 pM | 1.88 ± 0.13
0.00025 µM | 2.076 ± 0.0078
0.005 µM | 2.32 ± 0.15
0.1 µM | 2.4 ± 0.19
1 µM | 2.25 ± 0.091
10 µM | 2.08 ± 0.058
100 µM | 1.9 ± 0.16
625 fM | 1.97 ± 0.042
